The record followed here is US9351974B2, “Substituted pteridinones for the treatment of cancer” (OSI Pharmaceuticals, LLC, priority 2011, dated 2016).

This test deals with T1, His-tagged full-length RSK2 (RPS6KA3) (Homo sapiens, UniProt P51812).
T1 construct: His-tagged full-length RSK2 (RPS6KA3, Invitrogen PV3323); His; purchased Invitrogen PV3323
Description: RSK2 Omnia Assay for compound IC50 determination. It counts as biochemical. The settings on record: ATP 15 μM, n=2, read-out: Mean RSK2 Biochem IC50. In short, it runs like this: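 Initial-rate slopes from continuous kinetic reads were fitted to a four-parameter equation for IC50 (n=2). Ki was then derived by Cheng-Prusoff assuming ATP-competitive inhibition. Reactions contained 15 μM ATP (Km 16.3 μM), 5 μM Omnia ST Peptide 6, and […] in 50 mM HEPES pH 7.5, 10 mM MgCl2, 1 mM DTT, 1% DMSO. Compounds spanned 11 threefold steps, […] final.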

T1 sequence (P51812 whole entry): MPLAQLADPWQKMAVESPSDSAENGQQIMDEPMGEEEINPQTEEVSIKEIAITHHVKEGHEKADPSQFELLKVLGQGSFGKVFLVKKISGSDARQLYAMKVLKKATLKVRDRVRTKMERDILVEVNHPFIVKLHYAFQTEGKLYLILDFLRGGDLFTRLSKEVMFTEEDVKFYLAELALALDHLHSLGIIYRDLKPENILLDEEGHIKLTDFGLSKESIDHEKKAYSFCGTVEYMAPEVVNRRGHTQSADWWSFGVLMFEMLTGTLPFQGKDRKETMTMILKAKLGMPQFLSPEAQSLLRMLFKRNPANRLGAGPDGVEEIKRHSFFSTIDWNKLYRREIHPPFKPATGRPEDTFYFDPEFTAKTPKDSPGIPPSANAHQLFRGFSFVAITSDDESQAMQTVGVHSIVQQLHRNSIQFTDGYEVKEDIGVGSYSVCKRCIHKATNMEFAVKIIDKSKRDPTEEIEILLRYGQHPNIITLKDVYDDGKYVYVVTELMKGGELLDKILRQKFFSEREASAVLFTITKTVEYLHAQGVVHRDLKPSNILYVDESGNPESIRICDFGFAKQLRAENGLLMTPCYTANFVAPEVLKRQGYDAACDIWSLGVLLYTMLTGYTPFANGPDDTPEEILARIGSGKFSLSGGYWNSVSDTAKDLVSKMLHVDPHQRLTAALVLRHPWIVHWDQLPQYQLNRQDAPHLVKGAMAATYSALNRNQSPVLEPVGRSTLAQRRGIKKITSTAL

In the case of `COc1ccc(N2C(=O)[C@@H](C)N([C@H]3CC[C@@H](C(F)(F)F)CC3)c3nc(Nc4cc(F)c5[nH]ncc5c4)ncc32)cc1OC` [compound 257, (7R)-5-(3,4-dimethoxyphenyl)-2-[(7-fluoro-1H-indazol-5-yl)amino]-7-methyl-8-[cis-4-(trifluoromethyl)cyclohexyl]-7,8-dihydropteridin-6(5H)-one], the IC50 (in general, the concentration needed to halve the response being measured) is ≤ 100 nM.

Regarding `C[C@@H]1C(=O)N(c2cccc(CO)c2)c2cnc(Nc3ccc4[nH]ncc4c3)nc2N1C1CCCCC1` [compound 127, (7R)-8-cyclohexyl-5-[3-(hydroxymethyl)phenyl]-2-(1H-indazol-5-ylamino)-7-methyl-7,8-dihydropteridin-6(5H)-one], the IC50 was ≤ 100 nM.

Regarding `C[C@@H]1C(=O)N(c2ccc(F)cc2)c2cnc(Nc3ccc4[nH]ncc4c3)nc2N1C1CCCCC1` [Example 24, (7R)-8-cyclohexyl-5-(4-fluorophenyl)-2-(1H-indazol-5-ylamino)-7-methyl-7,8-dihydropteridin-6(5H)-one], the IC50 is ≤ 100 nM.

Take `COc1ccc(N2C(=O)[C@@H](C)N(C3CCC(=O)CC3)c3nc(Nc4cc(F)c5[nH]ncc5c4)ncc32)cc1OC` [compound 308, (7R)-5-(3,4-dimethoxyphenyl)-2-[(7-fluoro-1H-indazol-5-yl)amino]-7-methyl-8-(4-oxocyclohexyl)-7,8-dihydropteridin-6(5H)-one]: the IC50 is ≤ 100 nM.

Turning to `C[C@@H]1C(=O)N(c2cccc(C#N)c2)c2cnc(Nc3ccc4[nH]ncc4c3)nc2N1CC1CC(F)(F)C1` [Example 83, 3-[(7R)-8-[(3,3-difluorocyclobutyl)methyl]-2-(1H-indazol-5-ylamino)-7-methyl-6-oxo-7,8-dihydropteridin-5(6H)-yl]benzonitrile], the IC50 is ≤ 100 nM.

For `C[C@@H]1C(=O)N(c2cccc(C#N)c2)c2cnc(Nc3ccc(C(=O)O)cc3)nc2N1C1CCCCC1` [compound 155, 4-{[(7R)-5-(3-cyanophenyl)-8-cyclohexyl-7-methyl-6-oxo-5,6,7,8-tetrahydropteridin-2-yl]amino}benzoic acid], the IC50 was ≤ 100 nM.

For the molecule `COc1ccc(N2C(=O)[C@@H](C)N(C3CCCCC3)c3nc(Nc4cc(F)c(O)c(F)c4)ncc32)cc1OC` [compound 159], the IC50 is ≤ 100 nM.

In the case of `C[C@@H]1C(=O)N(c2cc(F)cc(F)c2)c2cnc(Nc3ccc4[nH]ncc4c3)nc2N1C1CCCCC1` [compound 95, (7R)-8-cyclohexyl-5-(3,5-difluorophenyl)-2-(1H-indazol-5-ylamino)-7-methyl-7,8-dihydropteridin-6(5H)-one], the IC50 is ≤ 100 nM.

With `CC[C@@H]1C(=O)N(c2cccc(C(F)(F)F)c2)c2cnc(Nc3cc(F)c4[nH]ncc4c3)nc2N1C1CCCCC1` [compound 291, (7R)-8-cyclohexyl-7-ethyl-2-[(7-fluoro-1H-indazol-5-yl)amino]-5-[3-(trifluoromethyl)phenyl]-7,8-dihydropteridin-6(5H)-one], the IC50 was ≤ 100 nM.

Consider `C[C@@H]1C(=O)N(c2cccnc2)c2cnc(Nc3cc(F)c4[nH]ncc4c3)nc2N1C1CCCCC1` [compound 135, (7R)-8-cyclohexyl-2-[(7-fluoro-1H-indazol-5-yl)amino]-7-methyl-5-(pyridin-3-yl)-7,8-dihydropteridin-6(5H)-one], for which the IC50 is ≤ 100 nM.

In the case of `C[C@@H]1C(=O)N(c2cccc(C#N)c2)c2cnc(Nc3ccc(C(=O)O)cc3)nc2N1C1CCC(F)(F)CC1` [compound 269, 4-{[(7R)-5-(3-cyanophenyl)-8-(4,4-difluorocyclohexyl)-7-methyl-6-oxo-5,6,7,8-tetrahydropteridin-2-yl]amino}benzoic acid], the IC50 was ≤ 100 nM.

For the molecule `COc1ccc(N2C(=O)[C@@H](C)N(C3CCCCC3)c3nc(Nc4ccc5[nH]c(=O)oc5c4)ncc32)cc1OC` [compound 150, (7R)-8-cyclohexyl-5-(3,4-dimethoxyphenyl)-7-methyl-2-[(2-oxo-2,3-dihydro-1,3-benzoxazol-6-yl)amino]-7,8-dihydropteridin-6(5H)-one], the IC50 was ≤ 100 nM.

For the molecule `CC(C)CCN1c2nc(Nc3cc(F)c4[nH]ncc4c3)ncc2N(c2cccnc2)C(=O)[C@H]1C` [Example 87, (7R)-2-[(7-fluoro-1H-indazol-5-yl)amino]-7-methyl-8-(3-methylbutyl)-5-(pyridin-3-yl)-7,8-dihydropteridin-6(5H)-one], the IC50 is ≤ 100 nM.

As for `C[C@@H]1C(=O)N(c2ccc(N3CCN(C)CC3)c(C#N)c2)c2cnc(Nc3cc(F)c4[nH]ncc4c3)nc2N1C1CCOCC1` [compound 206, 5-[(7R)-2-[(7-fluoro-1H-indazol-5-yl)amino]-7-methyl-6-oxo-8-(tetrahydro-2H-pyran-4-yl)-7,8-dihydropteridin-5(6H)-yl]-2-(4-methylpiperazin-1-yl)benzonitrile], the IC50 is ≤ 100 nM.

`C[C@@H]1C(=O)N(c2cccc(C#N)c2)c2cnc(Nc3cc(F)c4[nH]ncc4c3)nc2N1C1CCC(C)(C)CC1` [Example 209, 3-[(7R)-8-(4,4-dimethylcyclohexyl)-2-[(7-fluoro-1H-indazol-5-yl)amino]-7-methyl-6-oxo-7,8-dihydropteridin-5(6H)-yl]benzonitrile]: the IC50 is ≤ 100 nM.

Consider `C[C@@H]1C(=O)N(c2cccc(F)c2)c2cnc(Nc3cc(F)c4[nH]ncc4c3)nc2N1C1CCC(C)(C)CC1` [Example 211, (7R)-8-(4,4-dimethylcyclohexyl)-2-[(7-fluoro-1H-indazol-5-yl)amino]-5-(3-fluorophenyl)-7-methyl-7,8-dihydropteridin-6(5H)-one], for which the IC50 is ≤ 100 nM.

On to `C[C@@H]1C(=O)N(c2cccc(C#N)c2)c2cnc(Nc3cc(F)c4[nH]ncc4c3)nc2N1C1CCC2(CC1)CC2` [Example 297, 3-[(7R)-2-[(7-fluoro-1H-indazol-5-yl)amino]-7-methyl-6-oxo-8-(spiro[2.5]oct-6-yl)-7,8-dihydropteridin-5(6H)-yl]benzonitrile], for which the IC50 was ≤ 100 nM.

`COc1ccc(N2C(=O)[C@@H](C)N(C3CCOCC3)c3nc(Nc4cc(F)c5[nH]c(=O)oc5c4)ncc32)cc1C#N` [compound 203, 5-[(7R)-2-[(4-fluoro-2-oxo-2,3-dihydro-1,3-benzoxazol-6-yl)amino]-7-methyl-6-oxo-8-(tetrahydro-2H-pyran-4-yl)-7,8-dihydropteridin-5(6H)-yl]-2-methoxybenzonitrile]: the IC50 is ≤ 100 nM.

With `C[C@@H]1C(=O)N(c2cccc(C#N)c2)c2cnc(Nc3cc(F)c4[nH]ncc4c3)nc2N1C1CCC(F)(F)CC1` [Example 260, 3-[(7R)-8-(4,4-difluorocyclohexyl)-2-[(7-fluoro-1H-indazol-5-yl)amino]-7-methyl-6-oxo-7,8-dihydropteridin-5(6H)-yl]benzonitrile], the half-inhibitory concentration (IC50) was ≤ 100 nM.

Consider `COC(=O)c1ccc(N2C(=O)[C@@H](C)N(C3CCCCC3)c3nc(Nc4ccc5[nH]ncc5c4)ncc32)cc1` [Example 52, methyl 4-[(7R)-8-cyclohexyl-2-(1H-indazol-5-ylamino)-7-methyl-6-oxo-7,8-dihydropteridin-5(6H)-yl]benzoate], for which the IC50 is ≤ 100 nM.

With `CO[C@H]1CC[C@@H](N2c3nc(Nc4ccc5[nH]c(=O)oc5c4)ncc3N(c3cccc(C#N)c3)C(=O)[C@H]2C)CC1` [compound 228, 3-[(7R)-8-(cis-4-methoxycyclohexyl)-7-methyl-6-oxo-2-[(2-oxo-2,3-dihydro-1,3-benzoxazol-6-yl)amino]-7,8-dihydropteridin-5(6H)-yl]benzonitrile], the IC50 was ≤ 100 nM.

As to `CC(C)Oc1ccc(N2C(=O)[C@@H](C)N(C3CCC(F)(F)CC3)c3nc(Nc4cnc5[nH]ncc5c4)ncc32)cc1C#N` [compound 286, 5-[(7R)-8-(4,4-difluorocyclohexyl)-7-methyl-6-oxo-2-(1H-pyrazolo[3,4-b]pyridin-5-ylamino)-7,8-dihydropteridin-5(6H)-yl]-2-(propan-2-yloxy)benzonitrile], the IC50 fell in the range of 100 to 1000 nM.

Regarding `C[C@@H]1C(=O)N(c2cccc(C#N)c2)c2cnc(Nc3cc(F)c4[nH]ncc4c3)nc2N1c1cccc(F)c1` [compound 183, 3-[(7R)-2-[(7-fluoro-1H-indazol-5-yl)amino]-8-(3-fluorophenyl)-7-methyl-6-oxo-7,8-dihydropteridin-5(6H)-yl]benzonitrile], the IC50 is ≤ 100 nM.

`C[C@@H]1C(=O)N(c2cccc(C#N)c2)c2cnc(Nc3cnc4[nH]ncc4c3)nc2N1C1CCC(F)(F)CC1` [compound 270, 3-[(7R)-8-(4,4-difluorocyclohexyl)-7-methyl-6-oxo-2-(1H-pyrazolo[3,4-b]pyridin-5-ylamino)-7,8-dihydropteridin-5(6H)-yl]benzonitrile]: the IC50 is ≤ 100 nM.

Turning to `C[C@@H]1C(=O)N(c2ccncc2)c2cnc(Nc3ccc4[nH]ncc4c3)nc2N1C1CCCCC1` [Example 20, (7R)-8-cyclohexyl-2-(1H-indazol-5-ylamino)-7-methyl-5-(pyridin-4-yl)-7,8-dihydropteridin-6(5H)-one], the IC50 is ≤ 100 nM.

For `C[C@@H]1C(=O)N(c2cccc(C#N)c2)c2cnc(Nc3ccc(O)cn3)nc2N1C1CCCCC1` [compound 168, 3-[(7R)-8-cyclohexyl-2-[(5-hydroxypyridin-2-yl)amino]-7-methyl-6-oxo-7,8-dihydropteridin-5(6H)-yl]benzonitrile], the IC50 was in the range of 100 to 1000 nM.

Turning to `COc1cc2[nH]ncc2cc1Nc1ncc2c(n1)N(C1CCCCC1)[C@H](C)C(=O)N2c1cccc(C#N)c1` [compound 119, 3-[(7R)-8-cyclohexyl-2-[(6-methoxy-1H-indazol-5-yl)amino]-7-methyl-6-oxo-7,8-dihydropteridin-5(6H)-yl]benzonitrile], the IC50 was > 1000 nM.

Turning to `Cc1c(Nc2ncc3c(n2)N(C2CCCCC2)[C@H](C)C(=O)N3c2cccc(C#N)c2)ccc2[nH]ncc12` [compound 117, 3-[(7R)-8-cyclohexyl-7-methyl-2-[(4-methyl-1H-indazol-5-yl)amino]-6-oxo-7,8-dihydropteridin-5(6H)-yl]benzonitrile], the IC50 lay in the range of 100 to 1000 nM.
